Reference: patent US20110171291A1, “PATHOLOGICALLY-ACTIVATED THERAPEUTICS” (Sanford-Burnham Medical Research Institute, priority 2010, published 2011)

Key:
[1] = system: AMPA/KA-type glutamate receptor; experiment: Primary screen of the LOPAC 1280 library: Fluo-4 NW calcium entry induced by kainate in cultured cerebrocortical neurons; format: cell-based; details: three separate screens; 200 μM KA
Procedure: FIGS. 19a and 19b show the fluorescence response indicating calcium ion entry induced by Kainate (KA) at AMPA-type glutamate receptor channels in cultured neurons. Fluorescent dye loading is accomplished by adding Fluo-4 NW to cells at 37° C. for 20 min and at RT (room temperature) for 10 min. The cells are incubated with compounds to be screened (generally 1 to 10 μM in 1% DMSO) for 2 min, followed by incubation with 200 μM kainate (KA) for 10 min (20 μM KA is used for the second, lower concentration of agonist—not shown here). […] The Z-factor, a statistical indication of the robustness of a high-throughput screen, fluctuated between 0.54-0.73 through the time course. This range of Z-factors is more than adequate for HTS (a value of Z≧0.5 generally indicates a robust screen).
The disclosed methods screen for uncompetitive drugs against a number of targets. […] Primary neurons or cell lines are used that contain (or are genetically engineered to contain) a target molecule on their surface, such as the AMPA/kainate-type glutamate receptors with unedited GluR2 subunits or other molecules that result in intracellular Ca^2+ signaling, such as G-protein-coupled receptors. […] Screening (by quantifying the Ca^2+ response) with two concentrations of agonist for the target, a low concentration and a higher concentration, against chemicals in the library administered at a single micromolar concentration. For these AMPA receptors, kainate can be used as the agonist for HTS because the responses are less desensitizing than those to AMPA. The agonist results in an increase in intracellular Ca^2+ that can be monitored by HTS using the Ca^2+ indicator dye fluo-4 NW.
Using cerebrocortical neurons and calcium-sensitive dyes, as described above, conditions have been optimized for screening for AMPA/Kainate-receptor antagonists. For this purpose, the following experimental parameters were varied: cell density, composition of culture medium, length of cultures, type of calcium-sensitive dye, and condition (temperature and length) of dye loading. The following protocol was established. […]

NMDA receptor = experiment: Excitatory postsynaptic currents (EPSCs) recorded from the hippocampal autapse preparation; format: cell-based; details: 1 μM
Source text: Note that the initial component of the EPSC is mediated by AMPA-sensitive glutamate receptors, whereas a delayed component is mediated by NMDA receptors. […] See Chen, H.-S. V. et al. Neuroscience 86, 1121-1132 (1998).

[2] = system: brain damage after the ischaemic event; details: given up to 2 hours after the ischaemic event; cited from earlier work
rhodanese = experiment: PDI chaperone activity: aggregation of guanidinium-denatured rhodanese; format: biochemical; details: 1 μM recombinant PDI
Procedure: To determine whether S-nitrosylation affects PDI function, PDI chaperone and isomerase activities were monitored. Chaperone activity was assessed in a standard assay by measuring the degree of aggregation of rhodanese induced by guanidinium, as previously described9. Rhodanese aggregation occurred in a time-dependent manner, and incubation with recombinant wild-type PDI, but not dominantnegative PDI (produced by the N-terminal and C-terminal mutant) (Ko, H. S., et al. J. Biol. Chem., 277, 35386-35392, (2002)), suppressed this aggregation by about 80%. […] Thus, S-nitrosylation inhibited the functional activities of PDI. […] Therefore, the inhibitory effect of PDI on the aggregation of synphilin-1 was investigated, as observed in Lewy body inclusions in the brains of PD patients. First, it was tested if PDI could prevent the ubiquitinated, Lewy-body-like inclusions that are formed in the cytosol after synphilin-1 overexpression in cultured SH-SY5Y cells (See FIG. 2c). […]
Chaperone activity of PDI was measured by analyzing the renaturation (refolding) of denatured rhodanese in the presence of 1 μM PDI or its mutant form (Vuori, K., et al. J. Biol. Chem, 267, 7211-7214, (1992); Horibe, T. et al. J. Biol. Chem. 279, 4604-4611 (2004); Martin, J. et al. Nature 352, 36-42 (1991)). […] The aggregation of denatured rhodanese was monitored by the increase in absorbance at 320 nm. […]

Compound	scored as hit (significantly blocked calcium entry induced by KA) [1]	block of the NMDA receptor-mediated component of the EPSC (NMDA receptor)	also measured
N#Cc1cc2[nH]c(=O)c(=O)[nH]c2cc1[N+](=O)[O-] [CNQX]	positively scored		
O=[N+]([O-])c1cc2nc(O)c(O)nc2cc1[N+](=O)[O-] [DNQX]	scored positively in all three screens		
C[C@]12N[C@H](Cc3ccccc31)c1ccccc12 [MK-801, dizocilpine]		complete blockade	
NS(=O)(=O)c1cccc2c1c([N+](=O)[O-])cc1nc(O)c(O)nc12 [NBQX]	scored positively in all three screens		
CC12CC3CC(C)(C1)CC(N)(C3)C2 [memantine]		10-15%	reduction of brain damage [2]: approximately 50%
wild-type PDI: recombinant wild-type protein-disulphide isomerase			suppression of rhodanese aggregation (rhodanese): about 80%
